Experiment [1] concerns the target T1, human V1b receptor (Homo sapiens, UniProt P47901).
T1 sequence (P47901 1-424): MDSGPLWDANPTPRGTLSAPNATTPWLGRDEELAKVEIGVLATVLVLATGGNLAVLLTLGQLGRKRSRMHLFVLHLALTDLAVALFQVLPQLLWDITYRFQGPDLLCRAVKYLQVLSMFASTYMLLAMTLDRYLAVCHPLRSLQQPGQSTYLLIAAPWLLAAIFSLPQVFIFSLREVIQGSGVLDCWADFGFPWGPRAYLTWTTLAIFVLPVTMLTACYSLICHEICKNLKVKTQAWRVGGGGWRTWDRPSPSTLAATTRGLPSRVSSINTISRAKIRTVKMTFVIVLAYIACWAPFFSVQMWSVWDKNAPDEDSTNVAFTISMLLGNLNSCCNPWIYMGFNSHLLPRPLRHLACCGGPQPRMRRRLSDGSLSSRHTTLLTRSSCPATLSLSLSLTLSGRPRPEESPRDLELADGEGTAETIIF
The experiment can be described thus: V1b binding assay (3H-AVP displacement, HEK-293 membranes). The arrangement: expressed in transfected cells; host or cells: HEK-293 (membranes). As to conditions: for inhibition at 1 µM: 1.0 μM compound, read-out: V1b@1.0, % Inh; for inhibition at 10 µM: read-out: V1b % Inh @10. In a few lines:
(§1)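 Tracer 3H-AVP, 10,000 cpm/well; buffer 50 mM Tris/5 mM MgCl2/0.1% BSA pH 7.5 + Pefabloc, aprotinin, leupeptin, pepstatin A, bacitracin; NSB 1.25 μM AVP; 1 h RT; GF/C filtration (0.3% PEI); scintillation count with quench correction.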

For experiment [2], the target named is human V2 receptor (Homo sapiens, UniProt P30518). As to the kind of experiment: V2 binding assay (3H-AVP displacement, HEK-293 membranes). As to conditions: 1.0 μM compound; for inhibition at 1 µM: read-out: V2@1.0, % Inh. More on the design: expressed in transfected cells; host or cells: HEK-293 (membranes). In a few lines: as §1
Sequence of human V2 receptor (P30518 whole entry): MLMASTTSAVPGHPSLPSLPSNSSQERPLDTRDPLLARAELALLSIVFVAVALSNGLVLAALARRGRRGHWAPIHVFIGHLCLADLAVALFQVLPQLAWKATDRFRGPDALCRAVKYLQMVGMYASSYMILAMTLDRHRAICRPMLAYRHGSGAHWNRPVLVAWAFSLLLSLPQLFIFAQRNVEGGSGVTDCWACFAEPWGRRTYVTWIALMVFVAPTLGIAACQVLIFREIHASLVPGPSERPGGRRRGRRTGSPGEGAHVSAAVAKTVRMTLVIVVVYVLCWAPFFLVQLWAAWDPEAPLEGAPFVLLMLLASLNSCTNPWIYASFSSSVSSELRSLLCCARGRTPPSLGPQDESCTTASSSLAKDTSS
The target of experiment [3] is T2, NPY2 receptors (Homo sapiens, UniProt P49146).
T2 construct: Cell Membranes from KAN-TS cells having NPY2 receptors; endogenous in cells; host or cells: KAN-TS cells (membranes)
T2 sequence (P49146 1-381): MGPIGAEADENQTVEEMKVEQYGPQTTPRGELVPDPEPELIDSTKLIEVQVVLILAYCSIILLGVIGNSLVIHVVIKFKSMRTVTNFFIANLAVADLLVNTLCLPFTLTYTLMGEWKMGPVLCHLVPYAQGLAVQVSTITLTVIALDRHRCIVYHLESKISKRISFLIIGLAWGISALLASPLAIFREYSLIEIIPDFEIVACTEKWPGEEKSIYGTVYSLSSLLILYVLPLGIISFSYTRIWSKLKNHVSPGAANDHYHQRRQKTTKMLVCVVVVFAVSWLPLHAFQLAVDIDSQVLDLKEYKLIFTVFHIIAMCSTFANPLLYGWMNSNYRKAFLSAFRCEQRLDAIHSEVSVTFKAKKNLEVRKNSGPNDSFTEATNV
As to the kind of experiment: Neuropeptide Y receptor binding assay (125I-PYY, KAN-TS cell membranes). As to conditions: 10 μM compound; for inhibition at 10 µM: read-out: NPY-2@10, % Inh. How it is done:
Neuropeptide Y Receptor Binding Assay
Load 96-well RIA racks with RIA vials (Sarstedt, cat. #73.1055)
Prepare membranes—use 2×15 cm confluent plates/96-well assay plate
Add 14 mls Homogenization buffer/cell pellet
Homogenize at high speed for 15 seconds
Transfer to 15 ml conical tube and spin 5′ at 4° C. at setting 3 in RT6000 centrifuge
Transfer supernatant to 30 ml Corex tube
Balance and spin 25′ at 15,000 rpm at 4° C.
Resuspend pellet in 10 mls Binding buffer
Homogenize at high speed for 15 sec.
Bring volume up to 50 mls in Binding buffer (25 mls/2×96-well plates)
Keep on ice until use or freeze in aliquots (2 plates/tube) in −70° C.
Prepare ^125I-PYY (for 2×96-well compound plates)
Dilute 50 uCi ^125I-PYY in 1 ml H2O
Add 0.4 ml 10% BSA to 20 ml Binding buffer
Add 150 μl ^125I-PYY, mix well
NSB (1 μM PYY final conc.): 40 μl PYY (100 μM stock)+60 μl 30% DMSO in HEPES=40 μM PYY—add 5 μl/well
Total Binding: Add 5 μl/well of Compound Diluent
Add 5 μl compound (final conc. @10 μM)
Incubate at R.T. for 1 hr.
Spin plates for 10′ at setting 9 in RT6000 centrifuge
Aspirate supernatant from tubes, add 300 μl PBS and aspirate again.
After plates are washed and aspirated, put individual tubes in 12×75 mm polypropylene carrier tubes. Count on gamma counter.

The target in experiment [4] is human V1a receptor (Homo sapiens, UniProt P37288). As to the kind of experiment: V1a binding assay (3H-AVP displacement, HEK-293 membranes). The note with it: for inhibition at 1 µM: read-out: V1a@1.0, % Inh. More on the design: expressed in transfected cells; host or cells: HEK-293 (membranes). In outline:
as §1

Several values for one entry are separate records, joined by “and”; a condition that tells them apart may be missing. Equal values may be shown once.

Sequence of human V1a receptor (P37288 whole entry): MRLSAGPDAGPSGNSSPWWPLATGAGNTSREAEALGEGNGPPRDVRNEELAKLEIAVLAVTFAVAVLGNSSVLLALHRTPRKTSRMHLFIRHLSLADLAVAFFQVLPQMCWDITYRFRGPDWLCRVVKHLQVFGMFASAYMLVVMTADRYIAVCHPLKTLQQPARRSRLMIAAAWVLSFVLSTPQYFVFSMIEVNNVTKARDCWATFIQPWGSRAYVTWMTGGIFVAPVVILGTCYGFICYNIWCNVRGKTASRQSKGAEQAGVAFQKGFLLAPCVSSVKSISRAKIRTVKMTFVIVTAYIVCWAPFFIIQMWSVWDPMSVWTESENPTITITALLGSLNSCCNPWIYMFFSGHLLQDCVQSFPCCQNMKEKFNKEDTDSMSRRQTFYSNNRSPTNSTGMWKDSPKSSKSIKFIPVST

`CN1CCCC1CCn1c(=O)n(C2CCN(C(=S)NC(c3ccccc3)c3ccccc3)CC2)c2ccccc21` (stereo not drawn) [Compound 93]: the inhibition at 1 µM in experiment [1] amounted to 48%; in experiment [2] it was 0%. Moreover, in experiment [3], the inhibition at 10 µM came out at 17%. The compound further returned an IC50 in experiment [4] of 49 nM.
Take `COc1ccccc1CNC(=S)N1CCC(n2c(=O)n(CCCN3CCCCC3)c3ccccc32)CC1` [Compound 111, 1-[(N1-piperidinocarbothioyl-2-methoxybenzylamino)-4-yl]-3-(3-N-piperidinylpropyl)-1,3-dihydrobenzimidazol-2-one]: the inhibition at 1 µM in experiment [1] was 30%; in experiment [2], 0%. Besides, the inhibition at 10 µM in experiment [3] was determined as 31%. In experiment [4], the IC50 is 109 nM and 56 nM.
In the case of `O=C(NCc1ccccc1)N1CCC(n2c(=O)n(CCCN3CCCCC3)c3ccccc32)CC1` [Compound 106, 1-[(N1-piperidinocarbonybenzylamino)-4-yl]-3-(3-N-piperidinylpropyl)-1,3-dihydrobenzimidazol-2-one], the results for the inhibition at 1 µM in experiment [1], in experiment [2] and in experiment [4] (1.0 μM compound) were 32%, 2% and 56%, respectively. Further, the inhibition at 10 µM in experiment [3] amounted to 0%.
`O=c1[nH]c2ccccc2n1C1CCN(C(=S)NCCc2cccc(Cl)c2)CC1` [Compound 23]: the inhibition at 10 µM came out at 0% in experiment [1] (10 μM compound) and 15% in experiment [3]. In addition, the inhibition at 1 µM in experiment [2] was 12%; in experiment [4] (1.0 μM compound) it was 56%.
Take `CC1CC(C)CN(CCCn2c(=O)n(C3CCN(C(=O)NC(c4ccccc4)c4ccccc4)CC3)c3ccccc32)C1` (stereo not drawn) [Compound 101]: the inhibition at 1 µM turned out to be 43% in experiment [1] and 0% in experiment [2]. Further, the inhibition at 10 µM in experiment [3] came out at 21%. The compound further registered an IC50 in experiment [4] of 14 nM.
With `COc1ccccc1CNC(=S)N1CCC(n2c(=O)[nH]c3ccccc32)CC1` [Compound 14], the inhibition at 10 µM in experiment [1] (10 μM compound) is 0%; in experiment [3], 18%. Moreover, the inhibition at 1 µM in experiment [2] was 1%; in experiment [4] (1.0 μM compound) it was 0%.
For `O=C(NC(c1ccccc1)c1ccccc1)N1CCC(n2c(=O)n(CCCN3CCCCC3)c3ccccc32)CC1` [Compound 97, 1-[(N1-piperidinocarbonylbiphenylmethylamino)-4-yl]-3-(3-N-piperidinylpropyl)-1,3-dihydrobenzimidazol-2-one], the inhibition at 1 µM was found to be 35% in experiment [1] and 0% in experiment [2]. The inhibition at 10 µM in experiment [3] turned out to be 14%. This compound registered a half-maximal inhibitory concentration (IC50) in experiment [4] of 34 nM.
Consider `COc1ccccc1NC(=S)N1CCC(n2c(=O)[nH]c3ccccc32)CC1` [Compound 4, 1-[N1-Piperidinocarbothioyl-(2-methoxyphenyl)amino-4-yl]-1,3-dihydro-benzimidazol-2-one], for which the “V1b % Inh @10” value in experiment [1] (10 μM compound) amounted to 0%@10. The “V2@1.0, % Inh” value in experiment [2] is given as 0%. Also, the “NPY-2@10, % Inh” value in experiment [3] worked out at 6%. Also, the “V1a@1.0, % Inh” value in experiment [4] (1.0 μM compound) amounted to 0%.
`Cc1ccccc1NC(=O)N1CCC(n2c(=O)[nH]c3ccccc32)CC1` [Compound 48]: the inhibition at 10 µM in experiment [1] (10 μM compound) was 3%; in experiment [3], 22%. Moreover, the inhibition at 1 µM in experiment [2] came to 0%; in experiment [4] (1.0 μM compound), 2%.
For the compound `CCN(CC)CCCn1c(=O)n(C2CCN(C(=S)NC(c3ccccc3)c3ccccc3)CC2)c2ccccc21` [Compound 85, 1-[(N1-piperidinocarbothioylbiphenylmethylamino)-4-yl]-3-(3-N,N-diethylaminopropyl)-1,3-dihydrobenzimidazol-2-one], the IC50 in experiment [1] worked out at 230 nM; in experiment [4], 20 nM. Moreover, in experiment [2], the inhibition at 1 µM came to 8%. In addition, the inhibition at 10 µM in experiment [3] was 81%.
For the compound `COC(=O)[C@@H](Cc1c[nH]c2ccccc12)NC(=S)N1CCC(n2c(=O)[nH]c3ccccc32)CC1` [Compound 50], the inhibition at 10 µM in experiment [1] (10 μM compound) worked out at 15%; in experiment [3], 16%. Also, the values for the inhibition at 1 µM in experiment [2] and in experiment [4] (1.0 μM compound) were 0% and 8%, respectively.
For `O=c1n(CCCCN2CCCC2)c2ccccc2n1C1CCN(C(=S)NC(c2ccccc2)c2ccccc2)CC1` [Compound 104], the figures for the inhibition at 1 µM in experiment [1] and in experiment [2] were 48% and 14%, respectively. In experiment [3], the inhibition at 10 µM came to 96%. The compound further yielded an IC50 in experiment [4] of 18 nM.
Turning to `O=C(Nc1ccccc1-c1ccccc1)N1CCC(n2c(=O)[nH]c3ccccc32)CC1` [Compound 49], the figures for the inhibition at 10 µM in experiment [1] (10 μM compound) and in experiment [3] were 18% and 12%, respectively. The inhibition at 1 µM worked out at 0% in experiment [2] and 63% in experiment [4] (1.0 μM compound).
Taken in the same sequence, the figures for `O=c1[nH]c2ccccc2n1C1CCN(C(=S)NCc2cccc3ccccc23)CC1` [Compound 15] were 7%, 14%, 10% and 17%.
`O=c1n(CCCCN2CCCCC2)c2ccccc2n1C1CCN(C(=S)NC(c2ccccc2)c2ccccc2)CC1` [Compound 107]: the inhibition at 1 µM came out at 45% in experiment [1] and 12% in experiment [2]. Moreover, in experiment [3], the inhibition at 10 µM amounted to 95%. In experiment [4], this compound showed an IC50 of 22 nM.
Take `O=c1[nH]c2ccccc2n1C1CCN(C(=S)NCc2ccccc2)CC1` [Compound 11]: the inhibition at 10 µM came out at 0% in experiment [1] (10 μM compound) and 26% in experiment [3]. Also, in experiment [2], the inhibition at 1 µM was found to be 3%. The same compound came in with a half-inhibitory concentration (IC50) in experiment [4] of 3100 nM.
As to `O=c1[nH]c2ccccc2n1C1CCN(C(=S)NCc2ccc(Cl)cc2)CC1` [Compound 28], the inhibition at 10 µM was determined as 3% in experiment [1] (10 μM compound) and 24% in experiment [3]. Also, the inhibition at 1 µM was 0% in experiment [2] and 22% in experiment [4] (1.0 μM compound).
`O=C(NC(c1ccccc1)c1ccccc1)N1CCC(n2c(=O)n(CCCN3CCOCC3)c3ccccc32)CC1` [Compound 95, 1-[(N1-piperidinocarbonylbiphenylmethylamino)-4-yl]-3-(3-morpholinopropyl)-1,3-dihydrobenzimidazol-2-one]: the inhibition at 1 µM is 23% in experiment [1] and 2% in experiment [2]. In addition, in experiment [3], the inhibition at 10 µM was found to be 0%. This compound had an IC50 in experiment [4] of 162 nM.
With `CCCc1ccccc1NC(=O)N1CCC(n2c(=O)n(CCCN3CCCCC3)c3ccccc32)CC1` [Compound 117, 1-[(N1-piperidinocarbonyl-2-propylphenylamino)-4-yl]-3-(3-N-piperidinylpropyl)-1,3-dihydrobenzimidazol-2-one], the inhibition at 1 µM was 43% in experiment [1], 15% in experiment [2] and 68% in experiment [4] (1.0 μM compound). Moreover, in experiment [3], the inhibition at 10 µM worked out at 1%. Also, the IC50 in experiment [4] came out at 331 nM.
On to `O=C(NC(c1ccccc1)(c1ccccc1)c1ccccc1)N1CCC(n2c(=O)n(CCCN3CCCCC3)c3ccccc32)CC1` [Compound 120, 1-[(N1-piperidinocarbonyltriphenylmethylamino)-4-yl]-3-(3-N-piperidinylpropyl)-1,3-dihydrobenzimidazol-2-one], for which the figures for the inhibition at 1 µM in experiment [1], in experiment [2] and in experiment [4] (1.0 μM compound) were 25%, 20% and 20%, respectively. Also, the inhibition at 10 µM in experiment [3] amounted to 100%.

For orientation: IC50 means the midpoint of a concentration-inhibition curve. A higher IC50 goes with weaker potency in that assay.
